Reference: patent US20210139454A1, “FORMAMIDE COMPOUND, PREPARATION METHOD THEREFOR AND APPLICATION THEREOF” (SHENZHEN CHIPSCREEN BIOSCIENCES CO., LTD., priority 2018, published 2021)

Target: T1, recombinant human ASK1 (Homo sapiens, UniProt Q99683)
T1 construct: purchased Invitrogen PR7349B
T1 sequence (Q99683 1-1374): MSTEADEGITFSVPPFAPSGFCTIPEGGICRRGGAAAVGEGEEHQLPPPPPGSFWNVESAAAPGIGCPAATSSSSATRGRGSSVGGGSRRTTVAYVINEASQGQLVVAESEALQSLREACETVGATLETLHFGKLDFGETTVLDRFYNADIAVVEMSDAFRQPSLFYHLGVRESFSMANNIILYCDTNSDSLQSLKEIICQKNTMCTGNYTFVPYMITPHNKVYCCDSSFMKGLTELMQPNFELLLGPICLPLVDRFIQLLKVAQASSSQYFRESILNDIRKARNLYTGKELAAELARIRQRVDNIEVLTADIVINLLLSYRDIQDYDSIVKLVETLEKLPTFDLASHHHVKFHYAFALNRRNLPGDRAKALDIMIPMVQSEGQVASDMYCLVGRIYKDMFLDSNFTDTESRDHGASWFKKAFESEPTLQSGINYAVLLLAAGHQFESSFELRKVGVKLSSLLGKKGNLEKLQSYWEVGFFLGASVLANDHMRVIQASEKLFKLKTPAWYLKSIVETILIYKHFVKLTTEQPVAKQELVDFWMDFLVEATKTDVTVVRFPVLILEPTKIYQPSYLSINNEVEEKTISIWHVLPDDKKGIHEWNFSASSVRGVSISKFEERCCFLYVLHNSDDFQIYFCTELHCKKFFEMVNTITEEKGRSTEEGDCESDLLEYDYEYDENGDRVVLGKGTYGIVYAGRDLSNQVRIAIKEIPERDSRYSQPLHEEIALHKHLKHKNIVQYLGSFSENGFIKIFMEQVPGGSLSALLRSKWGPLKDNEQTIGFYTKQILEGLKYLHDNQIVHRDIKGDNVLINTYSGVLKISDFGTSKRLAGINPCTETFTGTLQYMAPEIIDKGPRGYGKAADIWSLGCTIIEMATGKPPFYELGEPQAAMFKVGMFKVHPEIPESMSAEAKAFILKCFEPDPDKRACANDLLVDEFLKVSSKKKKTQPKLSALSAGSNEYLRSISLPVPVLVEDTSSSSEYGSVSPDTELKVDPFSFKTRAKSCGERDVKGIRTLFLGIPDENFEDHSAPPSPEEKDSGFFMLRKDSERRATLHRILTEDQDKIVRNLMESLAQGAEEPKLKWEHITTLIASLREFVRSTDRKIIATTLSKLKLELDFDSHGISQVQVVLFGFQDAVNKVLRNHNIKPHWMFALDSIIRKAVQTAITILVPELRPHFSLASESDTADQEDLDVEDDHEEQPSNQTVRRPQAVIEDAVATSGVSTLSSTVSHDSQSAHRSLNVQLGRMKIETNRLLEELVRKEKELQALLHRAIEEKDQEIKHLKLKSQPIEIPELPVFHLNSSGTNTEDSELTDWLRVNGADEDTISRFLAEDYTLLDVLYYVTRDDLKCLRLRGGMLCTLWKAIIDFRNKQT
Experiment: ASK1 enzymatic inhibition in vitro by HTRF
Format: biochemical
Conditions: HTRF method, single concentration 100 nM; for inhibition at 0.1 µM: read-out: Inhibition Rate %
From the text: In this detection, homogeneous time resolved fluorescence (HTRF) was used to evaluate the inhibitory level of the compound on the enzyme activity of recombinant human ASK1 in an in vitro reaction system.
The basic principle of the detection of enzymatic activity in vitro: a specific substrate labeled with biotin at the end is phosphorylated under the action of a kinase, and the reaction product is mixed with the EU3+-Cryptate-labeled antibody that recognizes the phosphorylation site and XL665-labeled streptavidin. When the two fluorescent molecules are bound to the substrate at the same time, Eu will produce […] fluorescence under the stimulation of external excitation light (320 nm), and meanwhile, XL665 will be excited by energy transfer to produce 665 nm fluorescence. The phosphorylation of the substrate is evaluated by comparing the changes of fluorescence at two wavelengths (620 nm and 665 nm). […] The basic detection principle is known in the prior art (Cisbio, Nature Method 2006, June 23; DOI:10.1038/NMETH883).
Human recombinant ASK1 (MAP3K5) kinase, 2× kinase reaction buffer, and ATP (10 mM) were purchased from Invitrogen (Cat. No.: PR7349B), and HTRF detection kit, HTRF KinEASE STK discovery kit, was purchased from Cisbio (Cat. No.: 62ST0PEB).
The experimental process was carried out in accordance with the procedures required by the detection reagent manual (https://www.cisbio.com/sites/default/files/ressources/cisbio_ddpi_62ST0PEB.pdf). The details are as follows:
(1) Experimental preparation: the kinase reaction buffer (working solution) is prepared as required and used to dilute the test compound into different concentration gradients (the maximum concentration of the compound is 4 μM).
(2) 10 μL of the enzymatic reaction system (including 2.5 μL of test compound, 5 μL of kinase reaction buffer and 2.5 μL of ATP solution (provided in the kit)) is mixed well and reacted at room temperature for 1 h. The enzymatic reaction is carried out in a 96-well microplate.
(3) EU3+-Cryptate-labeled antibody and XL665-labeled streptavidin are diluted with reaction termination buffer in an appropriate ratio, and 5 μL of each of two diluted detection solutions is added to each reaction well and reacted at room temperature for 2 h.
(4) The reaction is set up with a control reaction at the same time, including a positive control without test compound and a negative control without ASK1 kinase. All detections are carried out in duplicate.
(5) After the reaction, a fluorescence detector (TecanSPARK 10M) is used to detect the fluorescence signal of each well, wherein, the excitation wavelength is 320 nm, and the detected emission wavelengths are 620 nm and 665 nm, respectively.
(6) The 665/620 ratio of each well is calculated respectively, and the 665/620 ratio of the negative control well is subtracted from that of the positive control well to get the basic level of phosphorylation of the substrate. The formula for calculating the enzymatic inhibition rate of the test compound: inhibition rate (%)=1-(ratio of detection wells-ratio of negative wells)/basic level of phosphorylation of the substrate. The phosphorylation inhibition rates are calculated for the test compounds with different concentration gradients, and then the 50% enzymatic inhibiting concentration (IC50) is calculated by using the IC50 calculator. The summary data of the representative compounds of the present invention are as follows (see Table 2).

Structure (SMILES)	inhibition at 0.1 µM [%]	Inhibition Rate % [%]
Cc1cc(F)c(C(=O)Nc2cccc(-c3nncn3C(C)C)n2)cc1NC(=O)C1CC1 [Compound I-1, 5-(cyclopropylformamido)-2-fluoro-4-methyl-N-(6-(4-isopropyl-4H-1,2,4-triazol-3-yl)pyridin-2-yl)benzamide]	54	–
Cc1cc(F)c(C(=O)Nc2cccc(-c3nncn3[C@@H](C)C(F)(F)F)n2)cc1NC(=O)C1CC1 [Compound I-3, (5)-5-(cyclopropylformamido)-2-fluoro-4-methyl-N-(6-(4-(1,1,1-trifluoropropyl-2-yl)-4H-1,2,4-triazol-3-yl)pyridin-2-yl)benzamide]	–	51
Cc1cc(F)c(C(=O)Nc2cccc(-c3nncn3CC(F)(F)F)n2)cc1NC(=O)C1CC1 [Compound I-4, 5-(cyclopropylformamido)-2-fluoro-4-methyl-N-(6-(4-(2,2,2-trifluoroethyl)-4H-1,2,4-triazol-3-yl)pyridin-2-yl)benzamide]	32	–
COC[C@@H](C)n1cnnc1-c1cccc(NC(=O)c2cc(NC(=O)C3CC3)c(C)cc2F)n1 [Compound I-6]	–	13
Cc1cc(F)c(C(=O)Nc2csc(-c3nncn3[C@@H](C)C(F)(F)F)n2)cc1NC(=O)C1CC1 [Compound I-8]	–	24
C[C@H](n1cnnc1-c1cccc(NC(=O)c2cc(NC(=O)C3CC3)c(Cl)cc2F)n1)C(F)(F)F [Compound I-9, (S)-4-chloro-5-(cyclopropylformamido)-2-fluoro-N-(6-(4-(1,1,1-trifluoropropyl-2-yl)-4H-1,2,4-triazol-3-yl)pyridin-2-yl)benzamide]	–	33
C[C@H](n1cnnc1-c1cccc(NC(=O)c2cc(NC(=O)C3CC3)ccn2)n1)C(F)(F)F [Compound I-10, (S)-4-(cyclopropylformamido)-N-(6-(4-(1,1,1-trifluoropropyl-2-yl)-4H-1,2,4-triazol-3-yl)pyridin-2-yl)pyridin-2-formamide]	–	44
C[C@H](n1cnnc1-c1cccc(NC(=O)c2cc(NC(=O)C3CC3)c(F)cn2)n1)C(F)(F)F [Compound I-11, (S)-4-(cyclopropylformamido)-5-fluoro-N-(6-(4-(1,1,1-trifluoropropyl-2-yl)-4H-1,2,4-triazol-3-yl)pyridin-2-yl)pyridin-2-formamide]	–	27
Cc1cc(F)c(C(=O)Nc2cccc(-c3nncn3C(C)C)n2)cc1NC(=O)C1CC1c1ccc(F)cc1 (stereo not drawn) [Compound I-13, 2-fluoro-5-(2-(4-fluorophenyl)cyclopropyl-1-formamido)-N-(6-(4-isopropyl-4H-1,2,4-triazol-3-yl)pyridin-2-yl)-4-methylbenzamide]	–	18

The next lines start with the values.

inhibition at 0.1 µM [%]	Inhibition Rate % [%]	Structure (SMILES)
42	–	Cc1cc(F)c(C(=O)Nc2cccc(-c3nncn3C(C)C)n2)cc1NC(=O)C1CCC1 [Compound I-14, 5-(cyclobutylformamido)-2-fluoro-N-(6-(4-isopropyl-4H-1,2,4-triazol-3-yl)pyridin-2-yl)-4-methylbenzamide]
–	21	Cc1cc(F)c(C(=O)Nc2cccc(-c3nncn3C(C)C)n2)cc1NC(=O)C1(F)CC1 [Compound I-16, 2-fluoro-N-(6-(4-isopropyl-4H-1,2,4-triazol-3-yl)pyridin-2-yl)-4-methyl-5-(1-(fluoro)cyclopropyl-1-formamido)benzamide]
–	15	Cc1cc(F)c(C(=O)Nc2cccc(-c3nncn3C(C)C)n2)cc1NC(=O)[C@H]1C[C@H]1F [Compound I-17, 2-fluoro-5-((1R,2R)-2-fluorocyclopropyl-1-formamido)-N-(6-(4-isopropyl-4H-1,2,4-triazol-3-yl)pyridin-2-yl)-4-methylbenzamide]
–	34	Cc1cc(F)c(C(=O)Nc2cccc(-c3nncn3C(C)C)n2)cc1NC(=O)[C@H]1C[C@@H]1F [Compound I-18, 2-fluoro-5-((1R,2S)-2-fluorocyclopropyl-1-formamido)-N-(6-(4-isopropyl-4H-1,2,4-triazol-3-yl)pyridin-2-yl)-4-methylbenzamide]
–	52	Cc1cc(F)c(C(=O)Nc2cccc(-c3nncn3[C@@H](C)C(F)(F)F)n2)cc1NC(=O)C1CCCC1 [Compound I-19, (S)-5-(cyclopentylformamido)-2-fluoro-4-methyl-N-(6-(4-(1,1,1-trifluoropropyl-2-yl)-4H-1,2,4-triazol-3-yl)pyridin-2-yl)benzamide]
–	16	Cc1cc(F)c(C(=O)Nc2cccc(-c3nncn3[C@@H](C)C(F)(F)F)n2)cc1NC(=O)C1CCCCCC1 [Compound I-20, (S)-5-(cycloheptylformamido)-2-fluoro-4-methyl-N-(6-(4-(1,1,1-trifluoropropyl-2-yl)-4H-1,2,4-triazol-3-yl)pyridin-2-yl)benzamide]
